For ten compounds, % of control, % of inhibition and % binding results are on record in ChEMBL document CHEMBL5465560, “Selectivity Literature for EUbOPEN Chemogenomic Library” (2024).

The target in assay [1] is T1, Homeodomain-interacting protein kinase 2 (Homo sapiens, UniProt Q9H2X6). In words: Selectivity interaction (KinomeScan (DiscoverX)) EUB0001619a HIPK2. Conditions: at 1 µM.
Assay [2] addresses Serine/threonine-protein kinase OSR1 (Homo sapiens) (UniProt O95747). In words: Selectivity interaction (KinomeScan (DiscoverX)) EUB0001619a OXSR1. Conditions: at 1 µM.
Assay [3] concerns the target Serine/threonine-protein kinase MARK1 (Homo sapiens) (UniProt Q9P0L2). Nature of the assay: Selectivity interaction (KinomeScan (DiscoverX)) EUB0000666a MARK1. Conditions: at 10 µM.
In assay [4] the target is 5'-AMP-activated protein kinase catalytic subunit alpha-1 (Homo sapiens, UniProt Q13131). Nature of the assay: Selectivity interaction (ProQinase) EUB0000171b PRKAA1.
Assay [5] concerns the target Phosphatidylinositol 4-kinase beta (Homo sapiens, UniProt Q9UBF8). Nature of the assay: Selectivity interaction (ProQinase) EUB0000171b PI4KB.
The target of assay [6] is T2, Mitogen-activated protein kinase 12 (Homo sapiens) (UniProt P53778).
T2 sequence (whole entry): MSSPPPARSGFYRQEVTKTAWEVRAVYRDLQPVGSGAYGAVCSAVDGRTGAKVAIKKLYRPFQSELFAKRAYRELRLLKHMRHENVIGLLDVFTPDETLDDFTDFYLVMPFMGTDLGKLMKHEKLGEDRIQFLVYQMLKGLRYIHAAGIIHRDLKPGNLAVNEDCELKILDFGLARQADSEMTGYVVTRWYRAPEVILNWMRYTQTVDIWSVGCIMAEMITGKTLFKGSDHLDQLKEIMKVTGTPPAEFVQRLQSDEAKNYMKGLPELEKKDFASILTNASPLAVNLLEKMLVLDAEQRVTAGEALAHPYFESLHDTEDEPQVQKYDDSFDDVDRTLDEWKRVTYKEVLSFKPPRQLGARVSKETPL
Nature of the assay: Selectivity interaction (Ambit KINOMEscan and KiNATiv profiling in Jurkat cells) EUB0000090b MAPK12. It is filed as cell-based. Conditions: at 1 µM.

Assay [7] concerns the target T3, Dual specificity mitogen-activated protein kinase kinase 5 (Homo sapiens) (UniProt Q13163).
T3 sequence (whole entry): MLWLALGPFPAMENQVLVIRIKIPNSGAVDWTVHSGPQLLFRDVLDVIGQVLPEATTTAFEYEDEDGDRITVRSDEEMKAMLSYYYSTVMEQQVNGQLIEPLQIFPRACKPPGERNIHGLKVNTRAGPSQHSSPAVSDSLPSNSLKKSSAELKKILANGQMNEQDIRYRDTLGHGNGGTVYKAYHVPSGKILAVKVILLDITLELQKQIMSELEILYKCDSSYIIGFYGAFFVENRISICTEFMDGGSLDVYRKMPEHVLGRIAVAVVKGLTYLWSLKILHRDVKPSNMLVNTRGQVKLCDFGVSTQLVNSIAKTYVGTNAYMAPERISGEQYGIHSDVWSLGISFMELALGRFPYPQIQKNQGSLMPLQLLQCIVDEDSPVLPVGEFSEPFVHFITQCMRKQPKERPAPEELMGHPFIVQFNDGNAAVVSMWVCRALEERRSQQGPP
Nature of the assay: Selectivity interaction (KinomeScan (DiscoverX)) EUB0001049a MAP2K5. Conditions: at 1 µM.

For assay [8], the target named is Serine/threonine-protein kinase PLK2 (Homo sapiens, UniProt Q9NYY3). In words: Selectivity interaction (Upstate Kinase Profiler service (Millipore)) EUB0000056c PLK2. Conditions: at 1 µM.
Assay [9] concerns the target T4, Phosphatidylinositol 4,5-bisphosphate 3-kinase catalytic subunit delta isoform (Homo sapiens) (UniProt O00329).
T4 sequence (whole entry): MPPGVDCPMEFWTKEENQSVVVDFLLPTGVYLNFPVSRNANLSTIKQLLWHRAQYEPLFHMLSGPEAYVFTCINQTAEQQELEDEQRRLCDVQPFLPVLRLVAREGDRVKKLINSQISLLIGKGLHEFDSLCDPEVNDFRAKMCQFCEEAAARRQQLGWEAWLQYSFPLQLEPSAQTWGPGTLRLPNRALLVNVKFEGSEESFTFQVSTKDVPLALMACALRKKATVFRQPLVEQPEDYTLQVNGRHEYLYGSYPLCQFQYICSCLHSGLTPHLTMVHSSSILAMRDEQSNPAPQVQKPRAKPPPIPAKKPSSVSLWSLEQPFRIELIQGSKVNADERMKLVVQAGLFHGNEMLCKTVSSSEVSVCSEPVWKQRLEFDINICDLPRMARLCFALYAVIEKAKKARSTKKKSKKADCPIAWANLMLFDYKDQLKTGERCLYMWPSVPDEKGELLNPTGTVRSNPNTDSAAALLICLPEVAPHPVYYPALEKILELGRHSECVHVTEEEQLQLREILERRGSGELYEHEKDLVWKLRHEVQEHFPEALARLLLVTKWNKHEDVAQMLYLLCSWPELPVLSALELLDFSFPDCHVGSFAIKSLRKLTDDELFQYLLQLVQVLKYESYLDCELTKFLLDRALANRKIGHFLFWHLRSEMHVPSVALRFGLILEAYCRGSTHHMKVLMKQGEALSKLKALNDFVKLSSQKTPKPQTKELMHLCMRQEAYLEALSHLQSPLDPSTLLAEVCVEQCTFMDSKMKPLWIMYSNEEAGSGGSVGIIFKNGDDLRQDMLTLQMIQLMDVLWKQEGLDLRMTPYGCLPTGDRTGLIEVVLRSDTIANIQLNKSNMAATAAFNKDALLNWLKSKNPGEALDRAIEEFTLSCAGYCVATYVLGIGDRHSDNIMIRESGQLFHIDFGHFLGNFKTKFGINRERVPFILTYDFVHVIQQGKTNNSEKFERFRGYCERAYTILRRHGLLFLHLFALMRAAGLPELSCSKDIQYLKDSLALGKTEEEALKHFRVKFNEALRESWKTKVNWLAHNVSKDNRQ
Nature of the assay: Selectivity interaction (KinomeScan (DiscoverX)) EUB0000655a PIK3CD. Conditions: at 10 µM.

Assay [10] concerns the target Dual specificity protein kinase CLK2 (Homo sapiens, UniProt P49760). In words: Selectivity interaction (KinomeScan (DiscoverX)) EUB0000655a CLK2. Conditions: at 10 µM.
Assay [11] addresses T1, Homeodomain-interacting protein kinase 2. In words: Selectivity interaction (KinomeScan (DiscoverX)) EUB0000092b HIPK2. Conditions: at 10 µM.
The target of assay [12] is Tyrosine-protein kinase Srms (Homo sapiens) (UniProt Q9H3Y6). Nature of the assay: Selectivity interaction (KinomeScan (DiscoverX)) EUB0001079a SRMS. Conditions: at 1 µM.
Assay [13] deals with Protein kinase C eta type (Homo sapiens) (UniProt P24723). Nature of the assay: Selectivity interaction (KinomeScan (DiscoverX)) EUB0000229b PRKCH. Conditions: at 10 µM.

T1 sequence (Q9H2X6 whole entry, looked up): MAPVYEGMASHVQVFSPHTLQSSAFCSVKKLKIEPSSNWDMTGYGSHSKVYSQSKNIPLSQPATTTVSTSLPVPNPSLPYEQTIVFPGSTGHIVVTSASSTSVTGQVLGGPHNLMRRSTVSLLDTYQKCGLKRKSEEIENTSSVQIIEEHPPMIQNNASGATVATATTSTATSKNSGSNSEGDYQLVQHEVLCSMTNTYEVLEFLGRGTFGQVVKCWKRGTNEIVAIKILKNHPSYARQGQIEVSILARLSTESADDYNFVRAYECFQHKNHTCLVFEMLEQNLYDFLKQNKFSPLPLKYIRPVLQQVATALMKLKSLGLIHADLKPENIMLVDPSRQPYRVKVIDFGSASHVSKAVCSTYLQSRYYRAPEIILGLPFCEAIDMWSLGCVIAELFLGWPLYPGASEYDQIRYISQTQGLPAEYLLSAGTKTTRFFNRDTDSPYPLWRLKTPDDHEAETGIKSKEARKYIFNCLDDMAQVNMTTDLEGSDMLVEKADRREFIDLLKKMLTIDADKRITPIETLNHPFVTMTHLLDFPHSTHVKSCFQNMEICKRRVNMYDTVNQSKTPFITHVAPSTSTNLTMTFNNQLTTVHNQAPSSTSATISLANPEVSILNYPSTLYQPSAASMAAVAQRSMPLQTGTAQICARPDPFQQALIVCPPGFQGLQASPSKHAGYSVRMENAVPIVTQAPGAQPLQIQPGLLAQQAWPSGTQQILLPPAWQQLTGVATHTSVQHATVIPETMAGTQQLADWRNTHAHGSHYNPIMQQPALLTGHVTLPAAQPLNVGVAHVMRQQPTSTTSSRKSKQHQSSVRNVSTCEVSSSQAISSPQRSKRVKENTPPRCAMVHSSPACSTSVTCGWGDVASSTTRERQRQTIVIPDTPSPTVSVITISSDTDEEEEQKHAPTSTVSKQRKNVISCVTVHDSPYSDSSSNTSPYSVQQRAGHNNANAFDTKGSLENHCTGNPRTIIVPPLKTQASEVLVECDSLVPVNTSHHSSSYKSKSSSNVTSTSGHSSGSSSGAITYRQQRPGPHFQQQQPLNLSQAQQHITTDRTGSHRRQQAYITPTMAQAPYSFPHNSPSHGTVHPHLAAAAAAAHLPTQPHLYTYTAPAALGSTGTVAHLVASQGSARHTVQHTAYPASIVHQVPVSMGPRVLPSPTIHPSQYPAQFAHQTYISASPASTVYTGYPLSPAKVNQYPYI
Phosphatidylinositol 4-kinase beta, sequence (Q9UBF8 2-816 limits assumed): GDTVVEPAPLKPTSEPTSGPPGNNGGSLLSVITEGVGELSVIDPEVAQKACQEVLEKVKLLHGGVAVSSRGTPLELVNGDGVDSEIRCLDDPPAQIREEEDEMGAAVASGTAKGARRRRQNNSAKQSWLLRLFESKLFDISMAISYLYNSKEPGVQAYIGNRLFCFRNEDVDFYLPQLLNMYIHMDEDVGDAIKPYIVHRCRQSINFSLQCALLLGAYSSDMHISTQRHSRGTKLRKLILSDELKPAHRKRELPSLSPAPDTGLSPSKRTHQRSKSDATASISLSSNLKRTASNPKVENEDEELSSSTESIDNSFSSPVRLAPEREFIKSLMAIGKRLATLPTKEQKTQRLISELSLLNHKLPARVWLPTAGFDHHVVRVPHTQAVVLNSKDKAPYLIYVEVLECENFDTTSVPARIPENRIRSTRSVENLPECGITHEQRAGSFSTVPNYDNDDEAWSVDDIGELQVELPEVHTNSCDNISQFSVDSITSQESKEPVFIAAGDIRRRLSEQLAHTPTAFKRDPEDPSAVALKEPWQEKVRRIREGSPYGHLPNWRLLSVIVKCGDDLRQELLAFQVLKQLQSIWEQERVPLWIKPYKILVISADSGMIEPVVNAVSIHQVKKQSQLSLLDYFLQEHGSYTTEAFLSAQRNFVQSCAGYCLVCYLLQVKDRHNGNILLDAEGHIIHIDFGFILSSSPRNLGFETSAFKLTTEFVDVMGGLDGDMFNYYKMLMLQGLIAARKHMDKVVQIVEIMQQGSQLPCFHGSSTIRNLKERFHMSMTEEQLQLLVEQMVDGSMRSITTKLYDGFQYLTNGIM
5'-AMP-activated protein kinase catalytic subunit alpha-1, sequence (Q13131 whole entry, looked up): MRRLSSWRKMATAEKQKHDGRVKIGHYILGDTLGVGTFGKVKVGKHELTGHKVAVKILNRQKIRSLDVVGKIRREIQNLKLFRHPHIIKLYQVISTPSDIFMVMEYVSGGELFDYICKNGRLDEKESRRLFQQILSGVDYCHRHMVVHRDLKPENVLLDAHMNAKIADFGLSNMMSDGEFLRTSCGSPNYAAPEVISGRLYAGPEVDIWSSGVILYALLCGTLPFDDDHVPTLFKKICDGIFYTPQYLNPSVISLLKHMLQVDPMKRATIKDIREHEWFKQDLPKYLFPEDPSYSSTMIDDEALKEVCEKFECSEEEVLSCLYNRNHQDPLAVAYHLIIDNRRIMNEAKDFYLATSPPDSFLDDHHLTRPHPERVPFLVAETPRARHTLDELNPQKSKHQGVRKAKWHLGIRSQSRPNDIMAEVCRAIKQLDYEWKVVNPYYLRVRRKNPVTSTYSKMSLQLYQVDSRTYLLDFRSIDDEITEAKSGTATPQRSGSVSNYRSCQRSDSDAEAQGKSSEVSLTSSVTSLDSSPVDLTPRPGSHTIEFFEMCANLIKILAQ
Serine/threonine-protein kinase MARK1 (Homo sapiens), sequence (Q9P0L2 whole entry, looked up): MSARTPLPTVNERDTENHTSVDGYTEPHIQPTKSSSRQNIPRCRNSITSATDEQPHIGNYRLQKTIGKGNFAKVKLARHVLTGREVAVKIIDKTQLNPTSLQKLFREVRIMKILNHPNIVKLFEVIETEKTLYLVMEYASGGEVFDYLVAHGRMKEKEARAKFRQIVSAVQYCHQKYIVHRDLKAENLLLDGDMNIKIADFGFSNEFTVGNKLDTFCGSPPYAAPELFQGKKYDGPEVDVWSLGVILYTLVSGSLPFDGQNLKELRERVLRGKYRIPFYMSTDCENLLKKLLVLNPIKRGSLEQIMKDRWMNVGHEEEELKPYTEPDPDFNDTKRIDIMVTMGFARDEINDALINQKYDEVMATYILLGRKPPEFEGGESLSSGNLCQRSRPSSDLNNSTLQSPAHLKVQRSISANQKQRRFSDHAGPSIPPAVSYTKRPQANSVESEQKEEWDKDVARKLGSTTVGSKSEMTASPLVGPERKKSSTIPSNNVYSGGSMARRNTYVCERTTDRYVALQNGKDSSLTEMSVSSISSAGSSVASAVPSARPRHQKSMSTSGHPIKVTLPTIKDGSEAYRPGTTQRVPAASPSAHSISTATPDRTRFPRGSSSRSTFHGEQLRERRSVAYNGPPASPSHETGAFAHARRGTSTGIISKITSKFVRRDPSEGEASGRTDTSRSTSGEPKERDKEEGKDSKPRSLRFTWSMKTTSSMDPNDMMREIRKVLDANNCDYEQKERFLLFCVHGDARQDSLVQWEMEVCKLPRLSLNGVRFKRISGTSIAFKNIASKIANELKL
Serine/threonine-protein kinase PLK2, sequence (Q9NYY3 whole entry, looked up, canonical isoform): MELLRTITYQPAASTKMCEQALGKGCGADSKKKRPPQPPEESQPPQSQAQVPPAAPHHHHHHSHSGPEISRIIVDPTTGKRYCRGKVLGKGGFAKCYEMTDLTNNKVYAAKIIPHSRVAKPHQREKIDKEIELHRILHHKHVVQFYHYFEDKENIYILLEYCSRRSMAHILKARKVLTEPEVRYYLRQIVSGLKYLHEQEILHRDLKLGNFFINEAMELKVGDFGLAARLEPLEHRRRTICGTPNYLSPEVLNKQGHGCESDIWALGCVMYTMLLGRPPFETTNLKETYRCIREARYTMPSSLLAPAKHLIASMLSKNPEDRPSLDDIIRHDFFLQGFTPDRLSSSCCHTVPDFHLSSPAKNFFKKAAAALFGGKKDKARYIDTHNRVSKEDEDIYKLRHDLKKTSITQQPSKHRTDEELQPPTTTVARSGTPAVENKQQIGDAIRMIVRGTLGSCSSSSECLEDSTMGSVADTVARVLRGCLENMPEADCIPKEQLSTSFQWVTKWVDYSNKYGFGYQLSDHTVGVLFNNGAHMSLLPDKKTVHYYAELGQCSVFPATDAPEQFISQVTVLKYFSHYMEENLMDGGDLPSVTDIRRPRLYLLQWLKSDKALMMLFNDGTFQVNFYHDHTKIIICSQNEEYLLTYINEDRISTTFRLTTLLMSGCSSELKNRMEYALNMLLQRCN
Serine/threonine-protein kinase OSR1 (Homo sapiens), sequence (O95747 2-527 limits assumed): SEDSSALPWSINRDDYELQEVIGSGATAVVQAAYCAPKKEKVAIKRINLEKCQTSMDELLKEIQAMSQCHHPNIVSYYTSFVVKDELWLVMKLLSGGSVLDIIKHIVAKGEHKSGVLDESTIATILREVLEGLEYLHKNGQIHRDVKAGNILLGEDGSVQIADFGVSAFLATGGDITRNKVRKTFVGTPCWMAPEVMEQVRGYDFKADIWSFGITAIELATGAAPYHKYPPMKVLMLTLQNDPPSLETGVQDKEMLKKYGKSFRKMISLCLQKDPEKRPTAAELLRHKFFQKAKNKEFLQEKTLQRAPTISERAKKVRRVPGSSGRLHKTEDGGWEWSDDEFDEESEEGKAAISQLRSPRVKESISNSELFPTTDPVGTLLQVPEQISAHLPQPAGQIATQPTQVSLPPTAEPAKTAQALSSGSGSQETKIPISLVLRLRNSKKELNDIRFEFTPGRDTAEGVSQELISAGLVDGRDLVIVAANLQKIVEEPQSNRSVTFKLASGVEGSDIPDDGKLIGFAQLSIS
Dual specificity protein kinase CLK2, sequence (P49760 whole entry, looked up): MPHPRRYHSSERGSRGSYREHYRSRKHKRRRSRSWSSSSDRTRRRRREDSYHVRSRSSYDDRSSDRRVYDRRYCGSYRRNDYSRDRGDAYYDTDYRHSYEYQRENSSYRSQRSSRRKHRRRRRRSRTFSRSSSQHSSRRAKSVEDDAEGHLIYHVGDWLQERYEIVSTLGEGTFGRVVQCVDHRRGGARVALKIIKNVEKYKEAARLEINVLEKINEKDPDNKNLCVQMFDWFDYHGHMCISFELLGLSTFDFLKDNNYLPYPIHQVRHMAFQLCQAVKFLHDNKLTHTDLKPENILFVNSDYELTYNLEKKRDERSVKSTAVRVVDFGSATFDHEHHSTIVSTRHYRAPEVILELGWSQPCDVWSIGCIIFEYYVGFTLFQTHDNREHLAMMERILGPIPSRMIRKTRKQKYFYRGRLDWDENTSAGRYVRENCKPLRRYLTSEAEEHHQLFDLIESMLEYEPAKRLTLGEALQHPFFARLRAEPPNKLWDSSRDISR

With `N#Cc1cccc(-c2c[nH]c3ncnc(N4CCOCC4)c23)c1`, the % of control in assay [1] was 65%; in [2], 90%.
The compound `O=C(NOC[C@H](O)CO)c1ccc(F)c(F)c1Nc1ccc(I)cc1F` displayed a % of control in assay [3] of 100%.
As for `C=CC(=O)Nc1cccc(C(=O)Nc2ccc(Nc3cc(-c4[nH]c(SC)nc4C)ccn3)cc2)c1`, the % of control in assay [4] (at 1 µM) amounted to 100%; in [4] (at 5 µM), 93%; in [5] (at 1 µM), 101%; in [5] (at 5 µM), 79%.
Take `CN(C)C/C=C/C(=O)Nc1ccc(C(=O)N2CCCC(Nc3ncc(Cl)c(-c4c[nH]c5ccccc45)n3)C2)cc1` (stereo not given): the % of control in [6] came to 78%.
`COc1cc(Nc2nc(C)cc(-c3cnn4nc(OC)ccc34)n2)cc(C(F)(F)F)c1` registered a % of control in assay [7] of 85%.
On to `Cc1ccc(-c2ccc3c(ccc4sc5c(c43)NC[C@@H](C)NC5=O)n2)cn1`, for which, in assay [8], the % of inhibition was -19%.
Regarding `CN(C)CCOc1ccc(-c2nc(-c3ccncc3)c(-c3ccc4c(c3)CC/C4=N\O)[nH]2)cc1`, the % of control was 79% in [9] and 52% in [10].
In turn, `CCC(=O)N1CCN(c2ccc(-n3c(=O)ccc4cnc5ccc(-c6cnc7ccccc7c6)cc5c43)cc2C(F)(F)F)CC1` returned a % of control in [11] of 58%.
`Nc1cnc(N2CCc3cc(S(=O)(=O)Nc4c(F)cc(Cl)cc4F)cc(N4CCCC4=O)c32)nc1` [TP-020n]: in [12], the % of control worked out at 88%.
In assay [13], `COc1cc(N(C)c2ccnc3ccc(C(F)(F)F)cc23)cc(OC)c1OC` came in with a % binding of 96%.
